The text below walks through data of article PMC5267425, “Identification of small molecule modulators of HIV-1 Tat and Rev protein accumulation” (Retrovirology, 2017).

Where a SMILES comes first, the peptide text is derived from it. The star is where a group is joined. Cbz = O=C(OCc1ccccc1)*

One assay relates to p53. Set-up: method as in PMID 27283735. As to conditions: cited from earlier work.
The subject of a further assay is HIV-1 US, SS and MS RNAs. Nature of the assay: qRTPCR of HIV-1 RNAs in 293T cells transfected with pHxbc2 R-/RI-. The note with it: 20 nM, 24 h, 293T (Figure S6). The assay is classed as cell-based. The procedure: Samples were processed and assayed as previously described using the BioRad Aurum Total RNA Lysis Kit (BioRad) as per manufacturer’s instructions with the addition of Turbo DNase (Ambion). Purified RNA (0.5–2 μg) was reverse transcribed using M-MLV (Invitrogen) to generate complementary DNA (cDNA). HIV-1 and actin mRNA levels in DMSO- and compound-treated samples were quantified by qPCR using the Mastercycler ep realplex (Eppendorf) as described by Wong et al.. Gene quantification was evaluated using the absolute quantification method, normalized to β-actin expression, and expressed relative to DMSO-treatment.
Additional file 1: Figure S1. […] Cell viability was measured by an XTT assay. […] Cells were analyzed after 24 h incubation with the compounds at the indicated concentrations ranging between 0–47 μM (791), 0–5 μM (833), or 0–62.5 μM (892). Results are expressed as the percentage (%) of viable cells relative to DMSO treatment ±SEM of two independent experiments performed in triplicate. […] Images are cropped to show a representative field of view. b The dose range of the compounds which inhibit HIV-1 GagGFP expression in HeLa rtTA HIVGagGFP C7 cells was measured by mean fluorescence intensity and expressed relative to fluorescence intensity in DMSO-treated samples (N ≥ 3, *p ≤ 0.05, **p ≤ 0.01, and ***p ≤ 0.001). […]

In assay [1] the test system is total protein synthesis in HeLa HIVrtTA∆Mls cells. Description: SUnSET total protein synthesis. It counts as cell-based. As to conditions: negative control. As to the method:
The effect of the compounds on nascent protein synthesis was measured by surface sensing of translation (SUnSET) as described by Schmidt et al.. Cells were incubated with puromycin, an aminoacyl tRNA analog, to allow puromycin incorporation into newly translated peptides and prevention of further ribosomal elongation by chain termination. To assess the effect of the compounds on protein translation, cells were prepared and treated as described above, but were incubated with 10 μg/mL of puromycin for a period of 30 min prior to harvesting cell lysates for protein analysis. Protein concentration of cell lysates was quantified by Bradford assay and equal amounts of protein (30–35 μg) was run on either 10% or 4–15% (gradient) gels. Following transfer to PVDF (BioRad), blots were probed with mouse monoclonal antibody to puromycin (anti-12D10, EMD Millipore). Blots were developed using ECL Plus (Perkin-Elmer) or Clarity (BioRad) and imaged using the ChemiDoc MP Imager (BioRad). To quantify the levels of protein synthesis, the volume intensity in each lane of compound-treated sample was calculated relative to the DMSO-treated sample and normalized to GAPDH loading control using ImageLab software (BioRad) from at least four independent experiments.

Assay [2] relates to HIV-1 Tat (p14, p16) and Gag. Nature of the assay: Rescue of Tat/Gag expression by proteasome inhibitor MG132. It counts as cell-based. The note with it: MG132 10 μM for 8 h, with 791, 833 or 892. The procedure:
To assess effect of compounds on HIV-1 Tat stability, the decay of HIV-1 Tat levels was compared between DMSO-treated and compound-treated protein lysates in the presence of cycloheximide. In the first set of experiments, HIV-1 gene expression was induced with doxycylin (dox) for 24 h then 10 μg/mL cycloheximide was added to block new protein synthesis in combination with either DMSO or the compounds. Cells were harvested every 2 h and Tat protein levels measured by western blot. Quantification of the relative intensity of the detected bands was performed using ImageLab software (BioRad) and normalized to corresponding bands of the loading control (GAPDH) from at least three independent experiments. To determine whether the compounds’ effect on HIV-1 gene expression could be reversed by inhibition of the proteasome, compound treatment assay was performed as previously described with the addition of 10 μM MG132 (Sigma-Aldrich) to compound-treated cells 8 h prior to harvesting. Equal amounts of protein were run on 13 or 14% gels by SDS-PAGE, blotted and probed with antibodies for Tat and GAPDH. Quantification of the relative intensity of the detected bands was performed using ImageLab software (BioRad) and normalized to corresponding bands of the loading control (GAPDH) from at least three independent experiments.

Take `COc1cc(/C=C/C(=O)CC(=O)/C=C/c2ccc(O)c(OC)c2)ccc1O` [curcumin]: the “Tat and p53 levels” value in the assay on p53 is reported as “reduces”.

For `CCC(=C/[C@H](C)C/C=C/C(C)=C/[C@@H](C)C(=O)[C@@H](C)[C@H](O)[C@@H](C)C/C(C)=C/C(=O)O)/C=C/[C@@H]1OC(=O)C=C[C@@H]1C` [leptomycin B], in the assay with HIV-1 US, SS and MS RNAs, the “HIV-1 MS RNA abundance” value is reported as “little or no change”; the “HIV-1 US and SS RNA levels” value is recorded as “dramatic reduction”.

Turning to `C[C@@H]1C[C@@H]([C@H](O)CC2CC(=O)NC(=O)C2)C(=O)[C@@H](C)C1` [cycloheximide, reference compound], the “puromycin signal (newly synthesized polypeptides)” value in assay [1] was “little”.

In the case of `CC(C)C[C@@H](C=O)NC(=O)[C@H](CC(C)C)NC(=O)[C@H](CC(C)C)NC(=O)OCc1ccccc1` [MG132, reference compound] (Cbz-Leu-Leu-Leu-aldehyde), the “production of HIV-1 Gag on addition of MG132” value in assay [2] is “did not restore”.
